{"source": "patent US11802133B2", "about": "“Heterocyclic compounds as monoacylglycerol lipase inhibitors” (Hoffmann-La Roche Inc., priority 2018, dated 2023)", "data": [{"target": "MAGL (Homo sapiens (Human), UniProt Q99685)", "sequence (Q99685 whole entry, species assumed)": "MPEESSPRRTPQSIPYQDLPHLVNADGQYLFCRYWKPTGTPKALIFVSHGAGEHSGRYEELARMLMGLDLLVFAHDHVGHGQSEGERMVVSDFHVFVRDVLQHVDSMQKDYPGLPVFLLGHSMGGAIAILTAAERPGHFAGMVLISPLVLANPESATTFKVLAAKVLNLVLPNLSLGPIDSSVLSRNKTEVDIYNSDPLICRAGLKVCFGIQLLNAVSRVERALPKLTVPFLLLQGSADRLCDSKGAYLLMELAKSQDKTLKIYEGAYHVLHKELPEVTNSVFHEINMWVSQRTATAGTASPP", "assay": "2-AG assay: MAGL inhibitory activity by hydrolysis of 2-arachidonoylglycerol to arachidonic acid (mass spectrometry)", "format": "biochemical", "details": "measured in 2-AG assay (footnote [b]); 8 μM 2-arachidonoylglycerol", "method": "Alternatively, compounds were profiled for MAGL inhibitory activity by determining the enzymatic activity by following the hydrolysis of the natural substrate 2-arachidonoylglycerol resulting in arachidonic acid, which can be followed by mass spectrometry. This assay is hereinafter abbreviated “2-AG assay”.\nA C18 SPE cartridge (G9205A) was used in an acetonitrile/water liquid setup. […] The activity of the compounds was calculated based on the ratio of intensities [arachidonic acid/d8-arachidonic acid].", "units": {"IC50": "µM"}, "values": [{"smiles": "O=C1CO[C@H]2CCN(C(=O)N3CC(Oc4ccc(C(F)(F)F)c(Cl)c4)C3)C[C@H]2N1", "note": "[Example 261]", "IC50": 0.048}, {"smiles": "N#Cc1cc(OC2CCN(C(=O)N3CC[C@@H]4OCC(=O)N[C@@H]4C3)CC2)ccc1C(F)(F)F", "note": "[Example 262]", "IC50": 0.181}, {"smiles": "N#Cc1cc(OC2CN(C(=O)N3CC[C@@H]4OCC(=O)N[C@@H]4C3)C2)ccc1C(F)(F)F", "note": "[Example 263, (+)-5-[1-[(4aR,8aS)-3-Oxo-4,4a,5,7,8,8a-hexahydropyrido[4,3-b][1,4]oxazine-6-carbonyl]azetidin-3-yl]oxy-2-(trifluoromethyl)benzonitrile]", "IC50": 1.1}, {"smiles": "O=C1CO[C@H]2CCN(C(=O)N3CC(Oc4ccc(Cl)c(Br)c4)C3)C[C@H]2N1", "note": "[Example 264]", "IC50": 0.084}, {"smiles": "O=C1CO[C@H]2CCN(C(=O)N3CC(Oc4ccc(C(F)(F)F)c(N5CC6(CCC6)C5)c4)C3)C[C@H]2N1", "note": "[Example 265, (+)-(4aR,8aS)-6-[3-[3-(2-Azaspiro[3.3]heptan-2-yl)-4-(trifluoromethyl)phenoxy]azetidine-1-carbonyl]-4,4a,5,7,8,8a-hexahydropyrido[4,3-b][1,4]oxazin-3-one]", "IC50": 0.006}, {"smiles": "CC1CN(c2cc(OC3CN(C(=O)N4CC[C@@H]5OCC(=O)N[C@@H]5C4)C3)ccc2C(F)(F)F)C1", "note": "[Example 266, (+)-(4aR,8aS)-6-[3-[3-(3-Methylazetidin-l-yl)-4-(trifluoromethyl)phenoxy]azetidine-1-carbonyl]-4,4a,5,7,8,8a-hexahydropyrido[4,3-b][l,4]oxazin-3-one]", "IC50": 0.018}, {"smiles": "O=C1CO[C@H]2CCN(C(=O)N3CC(Oc4ccc(C(F)(F)F)c(N5CC(F)(F)C5)c4)C3)C[C@H]2N1", "note": "[Example 267, (+)-(4aR,8aS)-6-[3-[3-(3,3-Difluoroazetidin-1-yl)-4-(trifluoromethyl)phenoxy]azetidine-1-carbonyl]-4,4a,5,7,8,8a-hexahydropyrido[4,3-b][l,4]oxazin-3-one]", "IC50": 0.042}, {"smiles": "CC1(F)CN(c2cc(OC3CN(C(=O)N4CC[C@@H]5OCC(=O)N[C@@H]5C4)C3)ccc2C(F)(F)F)C1", "note": "[Example 268, (+)-(4aR,8aS)-6-[3-[3-(3-Fluoro-3-methyl-azetidin-1-yl)-4-(trifluoromethyl)phenoxy]azetidine-1-carbonyl]-4,4a,5,7,8,8a-hexahydropyrido[4,3-b][l,4]oxazin-3-one]", "IC50": 0.028}, {"smiles": "O=C1CO[C@H]2CCN(C(=O)N3CC(Oc4ccc(C(F)(F)F)c(N5CC6(C5)CC(F)(F)C6)c4)C3)C[C@H]2N1", "note": "[Example 269, (+)-(4aR,8aS)-6-[3-[3-(6,6-Difluoro-2-azaspiro[3.3]heptan-2-yl)-4-(trifluoromethyl)phenoxy]azetidine-1-carbonyl]-4,4a,5,7,8,8a-hexahydropyrido[4,3-b][l,4]oxazin-3-one]", "IC50": 0.024}, {"smiles": "O=C1CO[C@H]2CCN(C(=O)N3CC(Oc4ccc(C(F)(F)F)c(N5CC6(CCCCO6)C5)c4)C3)C[C@H]2N1", "note": "[Example 270, (+)-(4aR,8aS)-6-[3-[3-(5-oxa-2-azaspiro[3.5]nonan-2-yl)-4-(trifluoromethyl)phenoxy]azetidine-1-carbonyl]-4,4a,5,7,8,8a-hexahydropyrido[4,3-b][l,4]oxazin-3-one]", "IC50": 0.061}, {"smiles": "O=C1CO[C@H]2CCN(C(=O)N3CC(Oc4cccc(N5CC6(CCC6)C5)c4Cl)C3)C[C@H]2N1", "note": "[Example 271, (+)-(4aR,8aS)-6-[3-[3-(2-Azaspiro[3.3]heptan-2-yl)-2-chloro-phenoxy]azetidine-1-carbonyl]-4,4a,5,7,8,8a-hexahydropyrido[4,3-b][1,4]oxazin-3-one]", "IC50": 0.02}, {"smiles": "CC1CN(c2cccc(OC3CN(C(=O)N4CC[C@@H]5OCC(=O)N[C@@H]5C4)C3)c2Cl)C1", "note": "[Example 272, (+)-(4aR,8aS)-6-[3-[2-Chloro-3-(3-methylazetidin-1-yl)phenoxy]azetidine-1-carbonyl]-4,4a,5,7,8,8a-hexahydropyrido[4,3-b][l,4]oxazin-3-one]", "IC50": 0.094}, {"smiles": "CC1(F)CN(c2cccc(OC3CN(C(=O)N4CC[C@@H]5OCC(=O)N[C@@H]5C4)C3)c2Cl)C1", "note": "[Example 273, (+)-(4aR,8aS)-6-[3-[2-Chloro-3-(3-fluoro-3-methyl-azetidin-1-yl)phenoxy]azetidine-1-carbonyl]-4,4a,5,7,8,8a-hexahydropyrido[4,3-b] [1,4] oxazin-3-one]", "IC50": 0.089}, {"smiles": "CC(C)(C)OC1CN(c2cccc(OC3CN(C(=O)N4CC[C@@H]5OCC(=O)N[C@@H]5C4)C3)c2Cl)C1", "note": "[Example 274, (+)-(4aR,8aS)-6-(3-(3-(3-(tert-Butoxy)azetidin-1-yl)-2-chlorophenoxy)azetidine-1-carbonyl)hexahydro-2H-pyrido[4,3-b][1,4]oxazin-3(4H)-one]", "IC50": 0.126}, {"smiles": "O=C1CO[C@H]2CCN(C(=O)N3CC(Oc4cccc(N5CC6(CCCO6)C5)c4Cl)C3)C[C@H]2N1", "note": "[Example 275, (+)-(4aR,8aS)-6-[3-[2-Chloro-3-(5-oxa-2-azaspiro[3.4]octan-2-yl)phenoxy]azetidine-1-carbonyl]-4,4a,5,7,8,8a-hexahydropyrido[4,3-b][1,4]oxazin-3-one]", "IC50": 0.032}, {"smiles": "O=C1CO[C@H]2CCN(C(=O)N3CC(Oc4cccc(N5CC6(CCCCO6)C5)c4Cl)C3)C[C@H]2N1", "note": "[Example 276, (+)-(4aR,8aS)-6-[3-[2-chloro-3-(5-oxa-2-azaspiro[3.5]nonan-2-yl)phenoxy]azetidine-1-carbonyl]-4,4a,5,7,8,8a-hexahydropyrido[4,3-b][1,4]oxazin-3-one]", "IC50": 0.019}, {"smiles": "O=C1CO[C@H]2CCN(C(=O)N3CC(Oc4cc(Cl)cc(N5CC6(CCC6)C5)c4)C3)C[C@H]2N1", "note": "[Example 277, (+)-(4aR,8aS)-6-[3-[3-(2-Azaspiro[3.3]heptan-2-yl)-5-chloro-phenoxy]azetidine-1-carbonyl]-4,4a,5,7,8,8a-hexahydropyrido[4,3-b][1,4]oxazin-3-one]", "IC50": 0.455}, {"smiles": "O=C1CO[C@H]2CCN(C(=O)N3CC(Oc4cc(Cl)cc(N5CCCC5)c4)C3)C[C@H]2N1", "note": "[Example 278, (+)-(4aR,8aS)-6-[3-(3-Chloro-5-pyrrolidin-l-yl-phenoxy)azetidine-1-carbonyl]-4,4a,5,7,8,8a-hexahydropyrido[4,3-b][1,4]oxazin-3-one]", "IC50": 0.211}, {"smiles": "O=C1CO[C@H]2CCN(C(=O)N3CC(OCc4ccc(F)cc4C(F)(F)F)C3)C[C@H]2N1", "note": "[Example 280]", "IC50": 0.041}, {"smiles": "O=C1CO[C@H]2CCN(C(=O)N3CC(CC(F)(F)c4ccc(C(F)(F)F)cc4)C3)C[C@H]2N1", "note": "[Example 281]", "IC50": 0.035}, {"smiles": "O=C1CO[C@H]2CCN(C(=O)N3CC(Cc4cccc(OC(F)(F)F)c4)C3)C[C@H]2N1", "note": "[Example 282]", "IC50": 0.136}, {"smiles": "O=C1CO[C@H]2CCN(C(=O)N3CCC(Oc4cc(C(F)(F)F)ccc4F)C3)C[C@H]2N1", "note": "(some centres unmarked) [Example 283]", "IC50": 0.179}, {"smiles": "O=C1CO[C@H]2CCN(C(=O)N3CCC(Oc4cc(C(F)(F)F)ccc4Cl)C3)C[C@H]2N1", "note": "(some centres unmarked) [Example 284]", "IC50": 0.072}, {"smiles": "O=C1CO[C@H]2CCN(C(=O)N3CCC(Oc4cc(C(F)(F)F)ccc4F)C3)C[C@H]2N1", "note": "(some centres unmarked) [Example 285]", "IC50": 2.6}, {"smiles": "O=C1CO[C@H]2CCN(C(=O)N3CCC(Oc4cc(C(F)(F)F)ccc4F)C3)C[C@H]2N1", "note": "(some centres unmarked) [Example 286]", "IC50": 0.128}, {"smiles": "Cc1ccc(/C=C/C2CN(C(=O)N3CC[C@@H]4OCC(=O)N[C@@H]4C3)C2)c(F)c1", "note": "[Example 287]", "IC50": 0.006}, {"smiles": "O=C1CO[C@H]2CCN(C(=O)N3CC(OCc4ccc(OC(F)(F)F)c(F)c4)C3)C[C@H]2N1", "note": "[Example 288]", "IC50": 0.053}, {"smiles": "O=C1CO[C@H]2CCN(C(=O)N3CC(/C=C/c4c(F)cccc4C(F)(F)F)C3)C[C@H]2N1", "note": "[Example 289]", "IC50": 0.003}, {"smiles": "Cc1cccc(COC2CN(C(=O)N3CC[C@@H]4OCC(=O)N[C@@H]4C3)C2)c1C", "note": "[Example 290]", "IC50": 0.044}, {"smiles": "Cc1ccc(COC2CN(C(=O)N3CC[C@@H]4OCC(=O)N[C@@H]4C3)C2)c(C)c1", "note": "[Example 291]", "IC50": 0.028}, {"smiles": "Cc1cc(C(F)(F)F)ccc1COC1CN(C(=O)N2CC[C@@H]3OCC(=O)N[C@@H]3C2)C1", "note": "[Example 292]", "IC50": 0.005}, {"smiles": "Cc1ccc(COC2CN(C(=O)N3CC[C@@H]4OCC(=O)N[C@@H]4C3)C2)cc1C(F)(F)F", "note": "[Example 294]", "IC50": 3}]}, {"target": "MAGL (recombinant wild-type) (Homo sapiens (Human), UniProt Q99685)", "sequence (Q99685 whole entry, species assumed)": "as above", "assay": "4-NPA assay: MAGL inhibitory activity by hydrolysis of 4-nitrophenylacetate (absorbance at 405 nm)", "format": "biochemical", "details": "measured in 4-NPA assay (footnote [a]); 1 nM MAGL, 300 μM 4-nitrophenylacetate", "method": "This assay is hereinafter abbreviated “4-NPA assay”.\nThe plate was shaked for 1 min at 2000 rpm (Variomag Teleshake) and then incubated for 15 min at RT. […] The final concentrations in the assay were 1 nM MAGL and 300 μM 4-Nitrophenylacetate. […] A second measurement was then done after incubation for 80 min at RT. From the two measurements, the slope was calculated by subtracting the first from the second measurement.", "units": {"IC50": "µM"}, "values": [{"smiles": "CC(C)(C)c1csc(CC2CCN(C(=O)N3CC[C@@H]4OCC(=O)N[C@@H]4C3)CC2)n1", "note": "(racemic) [Example 3, rac-(4aR,8aS)-6-[4-[(4-tert-Butylthiazol-2-yl)methyl]piperidine-1-carbonyl]-4,4a,5,7,8,8a-hexahydropyrido[4,3-b][1,4]oxazin-3-one]", "IC50": 0.066}, {"smiles": "O=C1CO[C@H]2CCN(C(=O)N3CCC(Cc4ccc(C(F)(F)F)cc4)CC3)C[C@H]2N1", "note": "(racemic) [Example 11, rac-(4aR,8aS)-6-[4-[[4-(Trifluoromethyl)phenyl]methyl]piperidine-1-carbonyl]-4,4a,5,7,8,8a-hexahydropyrido[4,3-b][1,4]oxazin-3-one]", "IC50": 0.042}, {"smiles": "O=C1CO[C@H]2CCN(C(=O)N3CCN(Cc4ccc(C(F)(F)F)cc4)CC3)C[C@H]2N1", "note": "(racemic) [Example 21, rac-(4aR,8aS)-6-(4-(4-(Trifluoromethyl)benzyl)piperazine-1-carbonyl)hexahydro-2H-pyrido[4,3-b][1,4]oxazin-3(4H)-one]", "IC50": 0.909}]}]}
